Laboratory results: patent US11208412B2 (DAEGU-GYEONGBUK MEDICAL INNOVATION FOUNDATION, priority 2017, dated 2021)

How the values were obtained:
Experiment in all cases: Kinase selectivity, DiscoverX scanMAX Kinase assay panel (% control)
Assay type in all cases: binding
[1] = target: T1, kinases of the scanMAX Kinase assay panel (Homo sapiens, UniProt Q9H2G2); conditions: kinase SLK; 1 uM in DMSO
T1 construct: purchased DiscoverX Co. (contract measurement) scanMAX Kinase assay panel
Procedure, shortened: (§1)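 A 1 uM DMSO solution of compound was applied across the panel kinases, and results were expressed as % control relative to DMSO (100%) and a positive control (0%).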

[2] = target: T2, kinases of the scanMAX Kinase assay panel (Homo sapiens, UniProt P33981); conditions: kinase TTK; 1 uM in DMSO
T2 construct: purchased DiscoverX Co. (contract measurement) scanMAX Kinase assay panel
T2 sequence (P33981 1-857): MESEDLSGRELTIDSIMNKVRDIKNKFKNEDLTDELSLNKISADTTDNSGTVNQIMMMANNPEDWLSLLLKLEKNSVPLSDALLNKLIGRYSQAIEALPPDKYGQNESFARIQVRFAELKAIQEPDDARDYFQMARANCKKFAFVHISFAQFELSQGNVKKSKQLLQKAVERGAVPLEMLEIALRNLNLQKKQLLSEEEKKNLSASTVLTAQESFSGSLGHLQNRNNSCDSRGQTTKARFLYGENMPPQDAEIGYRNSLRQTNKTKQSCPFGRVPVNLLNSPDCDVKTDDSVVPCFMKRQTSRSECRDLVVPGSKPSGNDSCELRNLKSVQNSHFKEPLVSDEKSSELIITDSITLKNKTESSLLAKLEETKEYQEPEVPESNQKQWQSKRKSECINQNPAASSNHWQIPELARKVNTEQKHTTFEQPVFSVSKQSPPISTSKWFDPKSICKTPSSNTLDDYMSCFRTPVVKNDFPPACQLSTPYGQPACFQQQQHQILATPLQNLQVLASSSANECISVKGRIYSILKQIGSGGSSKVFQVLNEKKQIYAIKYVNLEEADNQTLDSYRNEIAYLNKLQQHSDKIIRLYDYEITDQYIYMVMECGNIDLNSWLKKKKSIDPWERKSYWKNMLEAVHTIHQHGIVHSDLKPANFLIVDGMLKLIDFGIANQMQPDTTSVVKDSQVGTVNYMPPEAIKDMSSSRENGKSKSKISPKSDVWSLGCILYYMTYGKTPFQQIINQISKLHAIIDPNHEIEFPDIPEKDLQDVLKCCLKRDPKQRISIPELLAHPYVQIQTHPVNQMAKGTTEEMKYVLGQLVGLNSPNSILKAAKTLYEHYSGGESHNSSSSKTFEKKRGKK
Procedure, shortened: as §1

[3] = target: T3, kinases of the scanMAX Kinase assay panel (Homo sapiens, UniProt P42336, H1047Y); conditions: PIK3CA(H1047Y); 1 uM
T3 construct: purchased DiscoverX Co. (contract measurement) scanMAX Kinase assay panel
T3 sequence (P42336 whole entry H1047Y): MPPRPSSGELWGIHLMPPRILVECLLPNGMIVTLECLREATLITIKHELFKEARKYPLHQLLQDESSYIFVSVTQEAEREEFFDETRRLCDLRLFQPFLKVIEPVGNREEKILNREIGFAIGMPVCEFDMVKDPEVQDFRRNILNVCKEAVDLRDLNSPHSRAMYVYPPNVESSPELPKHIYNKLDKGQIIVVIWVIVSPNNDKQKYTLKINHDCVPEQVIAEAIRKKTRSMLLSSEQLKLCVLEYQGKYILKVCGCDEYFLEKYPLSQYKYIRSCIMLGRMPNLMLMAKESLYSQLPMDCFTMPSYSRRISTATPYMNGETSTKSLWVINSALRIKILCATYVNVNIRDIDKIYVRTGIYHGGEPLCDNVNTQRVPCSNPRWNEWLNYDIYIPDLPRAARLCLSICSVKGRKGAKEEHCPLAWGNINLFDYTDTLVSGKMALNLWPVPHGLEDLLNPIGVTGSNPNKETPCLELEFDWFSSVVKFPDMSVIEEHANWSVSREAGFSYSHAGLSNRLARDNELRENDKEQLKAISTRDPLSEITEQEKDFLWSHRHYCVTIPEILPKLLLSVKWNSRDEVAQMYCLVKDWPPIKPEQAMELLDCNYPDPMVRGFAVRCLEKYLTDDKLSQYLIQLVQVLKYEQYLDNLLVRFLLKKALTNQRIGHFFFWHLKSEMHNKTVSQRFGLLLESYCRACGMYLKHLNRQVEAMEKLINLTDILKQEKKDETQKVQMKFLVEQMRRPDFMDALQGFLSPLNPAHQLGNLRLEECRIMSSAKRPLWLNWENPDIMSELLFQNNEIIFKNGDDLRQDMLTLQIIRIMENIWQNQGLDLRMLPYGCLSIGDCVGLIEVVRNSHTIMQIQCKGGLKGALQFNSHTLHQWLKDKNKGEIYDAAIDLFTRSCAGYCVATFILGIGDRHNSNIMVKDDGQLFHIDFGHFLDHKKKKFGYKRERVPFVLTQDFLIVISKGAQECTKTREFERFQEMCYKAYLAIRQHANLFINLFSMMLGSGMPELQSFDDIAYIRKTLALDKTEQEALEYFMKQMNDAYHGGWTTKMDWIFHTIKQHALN
Procedure, shortened: as §1

[4] = target: T4, kinases of the scanMAX Kinase assay panel (Homo sapiens, UniProt Q16512); conditions: PKN1; 1 uM
T4 construct: purchased DiscoverX Co. (contract measurement) scanMAX Kinase assay panel
T4 sequence (Q16512 whole entry): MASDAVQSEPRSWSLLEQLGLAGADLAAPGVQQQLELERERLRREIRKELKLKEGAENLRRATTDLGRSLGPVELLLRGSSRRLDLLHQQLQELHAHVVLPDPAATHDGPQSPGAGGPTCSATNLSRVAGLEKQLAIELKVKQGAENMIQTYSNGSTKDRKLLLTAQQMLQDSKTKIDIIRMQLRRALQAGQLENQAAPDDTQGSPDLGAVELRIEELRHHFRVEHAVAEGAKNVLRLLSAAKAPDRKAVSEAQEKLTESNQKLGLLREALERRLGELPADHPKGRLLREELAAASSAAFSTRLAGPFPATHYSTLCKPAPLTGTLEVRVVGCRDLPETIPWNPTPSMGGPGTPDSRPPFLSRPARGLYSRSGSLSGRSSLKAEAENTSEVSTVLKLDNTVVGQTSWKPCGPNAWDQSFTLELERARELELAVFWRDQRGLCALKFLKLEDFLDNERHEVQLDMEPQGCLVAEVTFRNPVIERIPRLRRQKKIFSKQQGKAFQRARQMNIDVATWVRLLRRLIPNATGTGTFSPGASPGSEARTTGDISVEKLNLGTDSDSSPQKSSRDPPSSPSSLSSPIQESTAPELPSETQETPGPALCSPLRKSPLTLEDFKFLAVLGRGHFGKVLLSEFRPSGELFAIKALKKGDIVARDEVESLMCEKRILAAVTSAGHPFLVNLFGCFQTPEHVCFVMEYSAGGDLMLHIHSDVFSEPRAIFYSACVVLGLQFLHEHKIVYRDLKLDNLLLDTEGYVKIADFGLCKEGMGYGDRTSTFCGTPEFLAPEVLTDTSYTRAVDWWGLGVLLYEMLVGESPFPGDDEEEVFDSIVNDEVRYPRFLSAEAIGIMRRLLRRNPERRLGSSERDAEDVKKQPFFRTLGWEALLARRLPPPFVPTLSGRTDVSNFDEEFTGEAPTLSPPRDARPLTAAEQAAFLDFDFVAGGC
Procedure, shortened: as §1

[5] = target: T5, kinases of the scanMAX Kinase assay panel (Homo sapiens, UniProt P52564); conditions: MEK6; 1 uM
T5 construct: purchased DiscoverX Co. (contract measurement) scanMAX Kinase assay panel
T5 sequence (P52564 1-334): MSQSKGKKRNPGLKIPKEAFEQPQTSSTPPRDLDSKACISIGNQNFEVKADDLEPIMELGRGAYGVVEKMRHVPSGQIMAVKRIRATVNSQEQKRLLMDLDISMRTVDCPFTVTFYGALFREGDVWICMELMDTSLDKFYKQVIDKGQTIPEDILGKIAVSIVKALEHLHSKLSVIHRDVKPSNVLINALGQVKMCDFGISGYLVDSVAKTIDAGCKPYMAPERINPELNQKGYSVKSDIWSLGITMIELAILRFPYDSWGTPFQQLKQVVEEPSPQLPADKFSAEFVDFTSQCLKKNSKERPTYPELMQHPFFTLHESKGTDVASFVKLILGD
Procedure, shortened: as §1

[6] = target: T6, kinases of the scanMAX Kinase assay panel (Homo sapiens, UniProt P31749); conditions: AKT1; 1 uM
T6 construct: purchased DiscoverX Co. (contract measurement) scanMAX Kinase assay panel
T6 sequence (P31749 whole entry): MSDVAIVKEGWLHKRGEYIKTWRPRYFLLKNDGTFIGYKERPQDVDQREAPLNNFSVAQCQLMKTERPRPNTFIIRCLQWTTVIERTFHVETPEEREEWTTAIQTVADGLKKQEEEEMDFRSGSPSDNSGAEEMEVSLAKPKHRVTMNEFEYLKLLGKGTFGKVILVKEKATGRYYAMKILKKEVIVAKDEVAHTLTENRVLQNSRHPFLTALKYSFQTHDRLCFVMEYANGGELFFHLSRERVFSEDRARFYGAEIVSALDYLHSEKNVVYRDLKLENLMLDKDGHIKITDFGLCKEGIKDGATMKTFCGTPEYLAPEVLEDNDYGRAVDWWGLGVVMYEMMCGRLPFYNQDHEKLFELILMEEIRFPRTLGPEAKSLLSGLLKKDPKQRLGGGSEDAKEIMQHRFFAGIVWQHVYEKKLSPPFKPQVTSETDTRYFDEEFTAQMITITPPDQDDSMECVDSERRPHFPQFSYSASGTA
Procedure, shortened: as §1

[7] = target: T7, kinases of the scanMAX Kinase assay panel (Homo sapiens, UniProt Q5S007, G2019S); conditions: LRRK2(G2019S); 1 uM
T7 construct: purchased DiscoverX Co. (contract measurement) scanMAX Kinase assay panel
Procedure, shortened: as §1

T1 sequence (Q9H2G2 whole entry): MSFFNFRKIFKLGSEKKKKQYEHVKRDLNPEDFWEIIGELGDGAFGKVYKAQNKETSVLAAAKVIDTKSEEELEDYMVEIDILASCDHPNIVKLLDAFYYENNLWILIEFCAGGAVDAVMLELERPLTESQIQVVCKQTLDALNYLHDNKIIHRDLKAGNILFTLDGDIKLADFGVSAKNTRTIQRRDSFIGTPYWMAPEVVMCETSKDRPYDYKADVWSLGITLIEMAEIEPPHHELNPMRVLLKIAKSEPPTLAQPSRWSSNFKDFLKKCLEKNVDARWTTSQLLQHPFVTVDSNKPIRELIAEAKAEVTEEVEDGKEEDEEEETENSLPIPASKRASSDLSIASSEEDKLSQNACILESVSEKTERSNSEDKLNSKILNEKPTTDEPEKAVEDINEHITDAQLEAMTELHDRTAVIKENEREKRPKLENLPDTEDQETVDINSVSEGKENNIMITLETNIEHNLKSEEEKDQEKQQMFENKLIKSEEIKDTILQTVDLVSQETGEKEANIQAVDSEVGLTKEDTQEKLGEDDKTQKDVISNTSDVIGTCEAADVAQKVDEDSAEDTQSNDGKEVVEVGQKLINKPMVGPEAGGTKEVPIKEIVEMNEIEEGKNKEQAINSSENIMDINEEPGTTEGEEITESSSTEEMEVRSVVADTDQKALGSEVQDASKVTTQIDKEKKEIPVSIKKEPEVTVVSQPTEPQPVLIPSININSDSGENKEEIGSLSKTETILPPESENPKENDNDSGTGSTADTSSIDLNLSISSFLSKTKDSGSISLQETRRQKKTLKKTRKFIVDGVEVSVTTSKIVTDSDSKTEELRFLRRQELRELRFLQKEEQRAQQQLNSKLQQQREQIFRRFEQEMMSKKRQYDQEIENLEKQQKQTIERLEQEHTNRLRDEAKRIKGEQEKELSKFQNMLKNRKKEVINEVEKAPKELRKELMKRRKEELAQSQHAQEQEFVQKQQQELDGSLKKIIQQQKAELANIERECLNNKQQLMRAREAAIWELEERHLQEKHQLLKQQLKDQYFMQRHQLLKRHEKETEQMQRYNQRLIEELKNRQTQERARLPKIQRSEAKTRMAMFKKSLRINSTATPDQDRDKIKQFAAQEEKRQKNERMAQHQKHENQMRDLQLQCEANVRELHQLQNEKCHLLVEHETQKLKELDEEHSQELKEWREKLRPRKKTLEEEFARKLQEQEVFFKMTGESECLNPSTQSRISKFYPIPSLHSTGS

Row | SMILES | remaining binding at 1 µM [1] [%] | remaining binding at 1 µM [2] [%] | remaining binding at 1 µM [3] [%] | remaining binding at 1 µM [4] [%] | remaining binding at 1 µM [5] [%] | remaining binding at 1 µM [6] [%] | remaining binding at 1 µM [7] [%]
1 | CCNc1nc(Nc2ccc(C(=O)N3CCC(N4CCOCC4)CC3)cc2OC)nc2[nH]cc(C(F)(F)F)c12 [Example 104, (4-((4-(ethylamino)-5-(trifluoromethyl)-7H-pyrrolo[2,3-d]pyrimidine-2-yl)amino)-3-methoxyphenyl)(4-morpholinopiperidine-1-yl)methanone] | 97 | 1.4 | 96 | 95 | 92 | 100 | 2
2 | CC1(Nc2nc(Nc3cnn([C@H]4CCN(C5COC5)C[C@@H]4F)c3Cl)nc3[nH]cc(C#N)c23)CC1 [Example 52, 2-((5-chloro-1-((3S,4S)-3-fluoro-1-(oxetane-3-yl)piperidine-4-yl)-1H-pyrazole-4-yl)amino)((1-methylcyclopropyl)amino)-7H-pyrrolo[2,3-d]pyrimidine-5-carbonitrile] | 13 | 0.25 | 62 | 67 | 19 | 100 | 2.6
3 | CNc1nc(Nc2ccc(C(=O)N3CCOCC3)cc2OC)nc2[nH]cc(C#N)c12 [Example 1, 2-((2-methoxy-4-(morpholine-4-carbonyl)phenyl)amino)-4-(methylamino)-7H-pyrrolo[2,3-d]pyrimidine-5-carbonitrile] | 100 | 12 | 100 | 100 | 43 | 83 | 0
